US20100055183A1 (OsteoGeneX Inc., priority 2008, published 2010)

Experiments:
[1] = system: C57BL/6 mice; assay: Bone volume in treated mice by pQCT / micro-CT analysis; assay type: in vivo, mouse; settings: four month old male C57BL/6 mice, 0.1 mg/kg, daily i.p. for 30 days
Experimental: Four month old male C57BL/6 mice were treated daily with saline vehicle or the sclerostin inhibitor of trimeprazine tartrate at 0.1 mg/kg (via i.p) for 30 days. […]

[2] = system: C57BL/6 mice; assay: Serum osteocalcin bone formation marker, EIA Elisa, in treated mice; assay type: in vivo, mouse; settings: four month old male C57BL/6 mice, 5 mg/kg, daily i.p. for 30 days
From the text: […] Study endpoints included a biochemical marker of bone formation; osteocalcin, measured by EIA Elisa, and measurement of tibia trabecular bone volume by mico-CT analysis.

[3] = system: mouse; assay: Mouse bone formation assay, micro-CT after complete dosing schedule; assay type: in vivo; settings: versus control solution
From the text: (§1) Compounds useful in the methods of the present invention can be identified via a variety of methods known to one of skill in the art. Several exemplary methods for identifying such antagonists are described herein, including cell-based and in vitro techniques (Journal of Bone and Mineral Research 2006, 21(11), 1738-1749). A general method of identifying SOST antagonists involves evaluating the effects of antagonist candidates on bone formation under controlled conditions. Preferably bone formation is determined using micro-CT techniques on live animals. Preferred animals include rodents, more preferred are primates. Femur, tibia and vertebrae bones are particularly useful subjects for such study.
Briefly, the test animal is treated with a predetermined dose of a SOST antagonist candidate. […]
Once the dosing schedule has been completed, both test and control animals are examined to determine the quantity of bone formation present. […] Where necessary, levels of bone formation can be calculated by determining the volume of bone formation present in each animal. […]
For example, the mouse test animal is treated with a predetermined dose of a SOST antagonist candidate for a complete dosing schedule. […] Once the dosing schedule has been completed, both test and control animals are examined with sacrifice using micro-CT to determine the quantity of bone formation present.

[4] = system: Wnt pathway; assay: Modulation of the Wnt pathway (FIGS. 1 and 2); settings: doses of 2.5 ng (low), 60 ng (medium), 125 ng (high)
From the text: as §1

Row | Compound | increase in bone volume for the femur over baseline controls [1] | percent increase in serum osteocalcin bone formation marker over saline controls [2] | bone growth (quantity of bone formation present) [3] | modulation of the Wnt pathway to promote bone growth [4]
1 | trimeprazine tartrate | about 8% | 46% | – | –
2 | CCN(CC)C(C)CN1c2ccccc2Sc2ccccc21 (stereo not drawn) [ethopropazine] | – | – | promoting bone growth | modulating the Wnt pathway
3 | CC(CN(C)C)CN1c2ccccc2Sc2ccccc21 (stereo not drawn) [trimeprazine] | – | – | promoting bone growth | modulating the Wnt pathway
